Results reported in patent US12213955B2 (priority 2017, dated 2025).
Like-named read-outs stand apart in the source and are kept apart here.

Assays:
MERS-CoV [1] = type: cell-based
MERS-CoV [2] = type: cell-based; remark: listed apart in the source
MERS-CoV [3] = type: cell-based, MERS-CoV (HCoV-EMC/2012)
MERS-CoV [4] = experiment: microbe, parasite or virus in culture; type: cell-based
MERS-CoV [5] = type: cell-based, MERS-CoV (HCoV-EMC/2012); remark: listed apart in the source
[6] = test system: MERS-CoV nucleoprotein (NP); type: cell-based
MERS-CoV [7] = type: cell-based; remark: listed apart in the source
MERS-CoV [8] = type: cell-based; remark: listed apart in the source
MERS-CoV [9] = type: cell-based; remark: listed apart in the source
TNF-α, IL-1β, IL-8 = type: cell-based, human
MERS-CoV [10] = type: cell-based; remark: listed apart in the source
MERS-CoV [11] = type: cell-based; remark: listed apart in the source
MERS-CoV [12] = conditions: mouse, in vivo
MERS-CoV [13] = type: cell-based, MERS-CoV (HCoV-EMC/2012); remark: listed apart in the source
SARS-CoV = type: cell-based, SARS-CoV (GZ50)
Zika virus (ZIKV) = type: cell-based, ZIKV (Puerto Rico strain PRVABC59)
enterovirus-A71 (EV-A71) = type: cell-based, Enterovirus A71 (SZ/HK08-5)
[14] = test system: human adenovirus type 5 (AdV5); type: cell-based
Influenza A(H7N9) virus = conditions: mouse, in vivo
MERS-CoV [15] = type: cell-based; remark: listed apart in the source
[16] = test system: TK, CMV and SV40 promoters; type: cell-based
MERS-CoV [17] = type: cell-based; remark: listed apart in the source
Calu-3 cells = type: cell-based, human
Huh7 cells = type: cell-based, human
[18] = test system: fatty acid and cholesterol synthesis genes; type: cell-based, human
MERS-CoV [19] = type: cell-based; remark: listed apart in the source
n-SREBP1 = target: T1, n-SREBP1 (Homo sapiens, UniProt P36956); experiment: SREBP1 DNA (SRE) binding activity assay; type: biochemical
T1 construct: requires cleavage of pre-SREBPs to release the nuclear form (n-SREBPs); endogenous in cells; host or cells: Huh7 nuclear extract
T1 sequence (P36956 1-490 limits assumed): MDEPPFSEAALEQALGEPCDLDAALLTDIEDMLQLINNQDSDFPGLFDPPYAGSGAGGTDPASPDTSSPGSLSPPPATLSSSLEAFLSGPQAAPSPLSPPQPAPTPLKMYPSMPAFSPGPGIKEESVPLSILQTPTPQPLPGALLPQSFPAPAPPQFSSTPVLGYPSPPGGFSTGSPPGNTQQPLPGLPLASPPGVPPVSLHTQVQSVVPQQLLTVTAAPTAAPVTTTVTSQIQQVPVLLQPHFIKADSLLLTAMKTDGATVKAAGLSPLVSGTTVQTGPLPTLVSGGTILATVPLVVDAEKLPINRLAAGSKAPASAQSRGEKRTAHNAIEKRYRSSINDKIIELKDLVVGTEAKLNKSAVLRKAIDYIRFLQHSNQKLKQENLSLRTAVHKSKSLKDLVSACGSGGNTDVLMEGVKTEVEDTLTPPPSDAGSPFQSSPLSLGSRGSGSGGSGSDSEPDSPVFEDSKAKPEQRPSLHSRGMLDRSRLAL

n-SREBP2 = target: T2, n-SREBP2 (Homo sapiens, UniProt Q12772); experiment: SREBP2 DNA (SRE) binding activity assay; type: biochemical; conditions: dose-dependent
T2 construct: requires cleavage of pre-SREBPs to release the nuclear form (n-SREBPs); endogenous in cells; Huh7 in the sister assay
T2 sequence (Q12772 1-484 limits assumed): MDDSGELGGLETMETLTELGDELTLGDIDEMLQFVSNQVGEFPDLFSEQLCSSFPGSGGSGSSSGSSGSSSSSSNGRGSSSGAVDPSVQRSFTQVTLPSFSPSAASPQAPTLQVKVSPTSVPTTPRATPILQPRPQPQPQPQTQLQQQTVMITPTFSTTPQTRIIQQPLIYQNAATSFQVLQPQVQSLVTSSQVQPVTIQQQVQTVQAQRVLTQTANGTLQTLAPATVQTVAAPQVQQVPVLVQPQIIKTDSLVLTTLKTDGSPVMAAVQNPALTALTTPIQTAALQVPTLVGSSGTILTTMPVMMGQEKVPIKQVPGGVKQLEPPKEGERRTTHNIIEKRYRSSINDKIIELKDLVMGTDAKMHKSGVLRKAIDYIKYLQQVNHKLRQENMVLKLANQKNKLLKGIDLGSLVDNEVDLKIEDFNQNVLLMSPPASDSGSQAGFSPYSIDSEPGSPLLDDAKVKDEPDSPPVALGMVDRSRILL

HMGCS promoter = type: cell-based, hamster
FAS-promoter = type: cell-based
MERS-CoV [20] = type: cell-based; remark: listed apart in the source
[21] = test system: double-membrane vesicles (DMVs); type: cell-based, African green monkey
[22] = mouse models, reported [43]; cited from earlier work
[23] = Middle East respiratory syndrome-related coronavirus, read-out: IC50 anti-MERS-CoV activity

PF429242
reduction in viral titer (MERS-CoV [1]): about 1 log PFU/ml

CCCCCCCCCCCCCCC(Br)C(=O)O (stereo not shown) [2-BP]
palmitoylated-HA level (hemagglutinin (HA)): Reduced levels of palmitoylated-HA | total HA protein (hemagglutinin (HA)): no impact on protein synthesis | MERS-CoV replication (MERS-CoV [2]): inhibited MERS-CoV replication in a dose-dependent manner

C=C1CC[C@H](O)C/C1=C/C=C1\CCC[C@]2(C)[C@@H]([C@H](C)CCCC(C)(C)O)CC[C@@H]12 [25-Hydroxyvitamin D3]
cell protection against MERS-CoV infection (MERS-CoV [3]): protected Huh7 cells against MERS-CoV infection

C=C(C)[C@@H]1CC[C@]2(CO)CC[C@]3(C)[C@H](CC[C@@H]4[C@@]5(C)CC[C@H](O)C(C)(C)[C@@H]5CC[C@]43C)[C@@H]12 [betulin]
reduction in viral titer (MERS-CoV [1]): about 1 log PFU/ml

CC1(C)CCC(C)(C)c2cc(NC(=O)c3ccc(C(=O)O)cc3)ccc21 [Tamibarotene]
IC50 (MERS-CoV [4]; [23]): 320 ± 26 nM

CC1(C)CCC(C)(C)c2cc(C(=O)Nc3ccc(C(=O)O)cc3)ccc21 [AM580]
cell protection against MERS-CoV infection (MERS-CoV [3]): protected cells against infection | reduction of viral titer in the cell supernatant (MERS-CoV [5]): > 3 logs | expression of MERS-CoV nucleoprotein (NP) [6]: dramatically decreased | MERS-CoV NP-positive cells (MERS-CoV [7]): 5.38% | immunofluorescence staining for MERS-CoV NP (MERS-CoV [8]): near-complete suppression of virus infection | MERS-CoV replication in multiple cell types (MERS-CoV [9]): reduce MERS-CoV replication in multiple cell types | virus-induced pro-inflammatory cytokine activation (TNF-α, IL-1β, IL-8): suppress virus-induced pro-inflammatory cytokine activation | IC50 (MERS-CoV [4]; read-out: IC50 against MERS-CoV infection): < 1000 nM | PFU in intestinoid culture supernatant (MERS-CoV [10]): no PFU were detectable | expression of viral NP in intestinoids (MERS-CoV [10]): markedly decreased expression of viral NP | reduction of viral titer relative to DMSO-treated control intestinoids (MERS-CoV [10]): approximately 6 log10 PFU/ml | MERS-CoV NP expression in epithelial cells of terminal bronchioles (MERS-CoV [11]): marked reduction in MERS-CoV NP expression | alveolar damage and interstitial inflammatory infiltration in lung tissues (MERS-CoV [12]): significantly improved | mean body weight vs DMSO-treated control mice (MERS-CoV [12]): generally higher | reduction of viral RNA content of brain tissues vs DMSO-treated control (MERS-CoV [12]): 4 log10 | viral RNA content in lung tissues vs DMSO-treated control (MERS-CoV [12]): significantly (p<0.01) lower | survival (MERS-CoV [12]; ip, 12.5 mg/kg/day): 100% | selectivity index (CC50/IC50) (MERS-CoV [13]): 507 | concentrations inhibiting replication of SARS-CoV (SARS-CoV): nanomolar to low micromolar | selectivity index (CC50/IC50) (SARS-CoV): 114 | concentrations inhibiting replication of ZIKV (Zika virus (ZIKV)): nanomolar to low micromolar | concentrations inhibiting replication of EV-A71 (enterovirus-A71 (EV-A71)): nanomolar to low micromolar | concentrations inhibiting replication of AdV5 [14]: nanomolar to low micromolar | lung histopathology (Influenza A(H7N9) virus): ameliorated virus-associated pulmonary inflammatory infiltration and bronchopneumonia | mean body weight (Influenza A(H7N9) virus): gradually rebounded starting on day 8 post-challenge | mean viral RNA load in lung tissues vs DMSO-treated control (Influenza A(H7N9) virus): significantly (p<0.01) lower | survival rate (Influenza A(H7N9) virus): 60% | antiviral potency of AM580 with RAR-α antagonist ER50891 (MERS-CoV [15]): did not diminish the antiviral potency | transactivation of TK, CMV and SV40 promoters [16]: did not inhibit transactivation of promoters | MERS-CoV attachment or internalization (MERS-CoV [17]): did not interfere with MERS-CoV attachment or internalization | virus-induced perturbation of lipid homeostasis (lipidome) (Calu-3 cells): antagonized this virus-induced perturbation of lipid homeostasis | accumulation of lipid droplets and cholesterol (Huh7 cells): significantly reduced their production | cholesterol synthetic pathway genes with reduced mRNA expression (10/12) [18]: 83.3% | fatty acid metabolism genes with significant decreases in mRNA expression (13/17) [18]: 76.5% | loss of antiviral potency with increased n-SREBPs (MERS-CoV [19]): about 1 log10 unit | binding of n-SREBP1 with its SRE (n-SREBP1; Huh7 nuclear extraction, 20 μM): inhibited binding | binding partner: n-SREBP1 or SRE (pre-incubation) (n-SREBP1; pre-incubation 2 h): bind with n-SREBP1 rather than SRE | binding of n-SREBP2 with its SRE (n-SREBP2): inhibited binding | HMGCS-promoter-Luc reporter gene activity (HMGCS promoter): concentration-dependent inhibition | FAS-promoter-Luc reporter gene activity (FAS-promoter): concentration-dependent inhibition | anti-MERS-CoV activity (viral yield) (MERS-CoV [20]): showed anti-MERS-CoV activity | virus yield on addition of sodium palmitate (MERS-CoV [20]): increased the virus yield | DMV formation [21]: no DMVs were noted | palmitoylated-HA level (hemagglutinin (HA)): Reduced levels of palmitoylated-HA | total HA protein (hemagglutinin (HA)): no impact on protein synthesis | CC50 (different cell lines): 100000 to 200000 nM | teratogenicity [22]: teratogenic effects

C=C(c1ccc(C(=O)O)cc1)c1cc2c(cc1C)C(C)(C)CCC2(C)C [bexarotene]
IC50 (MERS-CoV [4]; [23]): 875 ± 15 nM
